Source: patent publication US11802111B2, “Cyclobutyl amide monoacylglycerol lipase modulators” (Janssen Pharmaceutica NV, priority 2020, dated 2023)

Molecular target: human MGL from HeLa cells (Homo sapiens (Human), UniProt Q99685)
Experiment: MGL in vitro activity assay ([glycerol-1,3-3H]-oleoyl glycerol hydrolysis, activated carbon filtration)
Assay type: biochemical
Conditions: 300 nM [Glycerol-1,3-3H]-oleoyl glycerol, one hour
Experimental: The assay used to measure the in vitro activity of MGL is adapted from the assay used for another serine hydrolase (FAAH) described in Wilson et al., 2003 (A high-throughput-compatible assay for determining the activity of fatty acid amide hydrolase. Wilson S J, Lovenberg T W, Barbier A J. Anal Biochem. 2003 Jul. 15; 318(2):270-5). The assay consists of combining endogenously expressed MGL from HeLa cells with test compounds, adding [glycerol-1,3-^3H]-oleyl glycerol, incubating for one hour, and then measuring the amount of cleaved [1,3-^3H]-glycerol that passes through an activated carbon filter. The amount of cleaved, tritiated glycerol passing through the carbon filter is proportional to the activity of the MGL enzyme in a particular well/test condition.
Standard conditions for this assay combine 300 nM [Glycerol-1,3-^3H]-oleoyl glycerol with human MGL from HeLa cells and test compounds for one hour, after which the reaction is filtered through activated carbon and tritium is measured in the flow through. The test compound concentration in screening mode is 10 μM, while the highest compound concentration in IC50 assays is determined empirically. MGL is the predominant hydrolase in HeLa cells/cell homogenates.

Sequence of human MGL from HeLa cells (Q99685 whole entry): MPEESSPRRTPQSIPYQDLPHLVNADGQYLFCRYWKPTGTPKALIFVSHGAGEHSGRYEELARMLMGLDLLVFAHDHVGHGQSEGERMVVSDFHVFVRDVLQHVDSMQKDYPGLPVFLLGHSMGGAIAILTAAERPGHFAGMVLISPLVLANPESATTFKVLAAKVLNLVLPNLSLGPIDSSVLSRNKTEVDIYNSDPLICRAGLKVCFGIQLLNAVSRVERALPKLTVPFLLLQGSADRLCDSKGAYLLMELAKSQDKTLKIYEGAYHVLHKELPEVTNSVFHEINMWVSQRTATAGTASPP

| SMILES | IC50 |
| --- | --- |
| Cc1cccc(C)c1C1CCC2(C1)CN(C(=O)[C@H]1C[C@@](C)(O)C1)C2 (mixture of isomers) [Example 98, (rac)-(6-(2,6-Dimethylphenyl)-2-azaspiro[3.4]octan-2-yl)((1s,3s)-3-hydroxy-3-methylcyclobutyl)methanone] | 292 nM |
| Cn1cc(C2CCC3(C2)CN(C(=O)[C@H]2C[C@@](C)(O)C2)C3)cn1 (mixture of isomers) [Example 99, (rac)-((1s,3s)-3-Hydroxy-3-methylcyclobutyl)(6-(1-methyl-1H-pyrazol-4-yl)-2-azaspiro[3.4]octan-2-yl)methanone] | 5930 nM |
| Cn1cc(C2CCC3(C2)CN(C(=O)[C@H]2C[C@@](C)(O)C2)C3)c(C(F)(F)F)n1 (mixture of isomers) [Example 100, (rac)-((1s,3s)-3-Hydroxy-3-methylcyclobutyl)(6-(1-methyl-3-(trifluoromethyl)-1H-pyrazol-4-yl)-2-azaspiro[3.4]octan-2-yl)methanone] | 8850 nM |
| Cn1nc(C(F)(F)F)cc1C1CCC2(C1)CN(C(=O)[C@H]1C[C@@](C)(O)C1)C2 (mixture of isomers) [Example 101, (rac)-((1s,3s)-3-Hydroxy-3-methylcyclobutyl)(6-(1-methyl-3-(trifluoromethyl)-1H-pyrazol-5-yl)-2-azaspiro[3.4]octan-2-yl)methanone] | 753 nM |
| Cn1ncc2cc(C3CCC4(C3)CN(C(=O)[C@H]3C[C@@](C)(O)C3)C4)ccc21 (mixture of isomers) [Example 102, (rac)-((1s,3s)-3-Hydroxy-3-methylcyclobutyl)(6-(1-methyl-1H-indazol-5-yl)-2-azaspiro[3.4]octan-2-yl)methanone] | 301 nM |
| Cc1ccc(C2CCC3(C2)CN(C(=O)[C@H]2C[C@@](C)(O)C2)C3)cc1OC(F)(F)F (mixture of isomers) [Example 107, (rac)-((1s,3s)-3-Hydroxy-3-methylcyclobutyl)(6-(4-methyl-3-(trifluoromethoxy)phenyl)-2-azaspiro[3.4]octan-2-yl)methanone] | 7.4 nM |
| C[C@]1(O)C[C@@H](C(=O)N2CC3(CCC(c4ccc(F)c(C5CC5)c4)C3)C2)C1 (mixture of isomers) [Example 108, (rac)-(6-(3-Cyclopropyl-4-fluorophenyl)-2-azaspiro[3.4]octan-2-yl)((1s,3s)-3-hydroxy-3-methylcyclobutyl)methanone] | 14 nM |
| Cn1ncc(C2CCC3(C2)CN(C(=O)[C@H]2C[C@@](C)(O)C2)C3)c1C(F)(F)F (mixture of isomers) [Example 109, (rac)-((1s,3s)-3-Hydroxy-3-methylcyclobutyl)(6-(1-methyl-5-(trifluoromethyl)-1H-pyrazol-4-yl)-2-azaspiro[3.4]octan-2-yl)methanone] | 899 nM |
| C[C@]1(O)C[C@@H](C(=O)N2CC3(CCC(c4cccc(C(F)(F)F)n4)C3)C2)C1 (mixture of isomers) [Example 110, (rac)-((1s,3s)-3-Hydroxy-3-methylcyclobutyl)(6-(6-(trifluoromethyl)pyridin-2-yl)-2-azaspiro[3.4]octan-2-yl)methanone] | 435 nM |
| Cn1cnc2cc(C3CCC4(C3)CN(C(=O)[C@H]3C[C@@](C)(O)C3)C4)ccc21 (mixture of isomers) [Example 111, (rac)-((1s,3s)-3-Hydroxy-3-methylcyclobutyl)(6-(1-methyl-1H-benzo[d]imidazol-5-yl)-2-azaspiro[3.4]octan-2-yl)methanone] | 949 nM |
| Cn1c(C2CCC3(C2)CN(C(=O)[C@H]2C[C@@](C)(O)C2)C3)nc2ccccc21 (mixture of isomers) [Example 112, (rac)-((1s,3s)-3-Hydroxy-3-methylcyclobutyl)(6-(1-methyl-1H-benzo[d]imidazol-2-yl)-2-azaspiro[3.4]octan-2-yl)methanone] | 5530 nM |
| CC(C)c1cc(F)cc(C2CCC3(C2)CN(C(=O)[C@H]2C[C@@](C)(O)C2)C3)c1 (mixture of isomers) [Example 125, (rac)-(6-(3-Fluoro-5-isopropylphenyl)-2-azaspiro[3.4]octan-2-yl)((1s,3s)-3-hydroxy-3-methylcyclobutyl)methanone] | 8.3 nM |
| CC[C@]1(O)C[C@@H](C(=O)N2CC3(CCC(c4cccc(C(C)(C)C)c4)C3)C2)C1 (mixture of isomers) [Example 126, (rac)-(6-(3-(tert-Butyl)phenyl)-2-azaspiro[3.4]octan-2-yl)((1r,3s)-3-ethyl-3-hydroxycyclobutyl)methanone] | 7.5 nM |
| C[C@]1(O)C[C@@H](C(=O)N2CCC3(CCC(c4ccc(C(F)(F)F)cc4)C3)CC2)C1 (mixture of isomers) [Example 152, (rac)-((1s,3s)-3-Hydroxy-3-methylcyclobutyl)(2-(4-(trifluoromethyl)phenyl)-8-azaspiro[4.5]decan-8-yl)methanone] | 3.3 nM |
| Cc1ccc(CC2CCC3(C2)CN(C(=O)[C@H]2C[C@@](C)(O)C2)C3)cc1 (mixture of isomers) [Example 169, (rac)-((1s,3s)-3-Hydroxy-3-methylcyclobutyl)(6-(4-methylbenzyl)-2-azaspiro[3.4]octan-2-yl)methanone] | 36 nM |
| CC(C)c1ccc(CC2CCC3(C2)CN(C(=O)[C@H]2C[C@@](C)(O)C2)C3)cc1 (mixture of isomers) [Example 170, (rac)-((1s,3s)-3-Hydroxy-3-methylcyclobutyl)(6-(4-isopropylbenzyl)-2-azaspiro[3.4]octan-2-yl)methanone] | 10 nM |
| C[C@]1(O)C[C@@H](C(=O)N2CC3(CCC(Cc4ccc(C(F)(F)F)cc4)C3)C2)C1 (mixture of isomers) [Example 171, (rac)-((1s,3s)-3-Hydroxy-3-methylcyclobutyl)(6-(4-(trifluoromethyl)benzyl)-2-azaspiro[3.4]octan-2-yl)methanone] | 6.8 nM |
| Cc1cccc(CC2CCC3(C2)CN(C(=O)[C@H]2C[C@@](C)(O)C2)C3)c1 (mixture of isomers) [Example 174, (rac)-((1s,3s)-3-Hydroxy-3-methylcyclobutyl)(6-(3-methylbenzyl)-2-azaspiro[3.4]octan-2-yl)methanone] | 23 nM |
| Cc1ccccc1CC1CCC2(C1)CN(C(=O)[C@H]1C[C@@](C)(O)C1)C2 (mixture of isomers) [Example 175, (rac)-((1s,3s)-3-Hydroxy-3-methylcyclobutyl)(6-(2-methylbenzyl)-2-azaspiro[3.4]octan-2-yl)methanone] | 43 nM |
| C[C@]1(O)C[C@@H](C(=O)N2CC3(CCC(Cc4cccc(C(F)(F)F)c4)C3)C2)C1 (mixture of isomers) [Example 176, (rac)-((1s,3s)-3-Hydroxy-3-methylcyclobutyl)(6-(3-(trifluoromethyl)benzyl)-2-azaspiro[3.4]octan-2-yl)methanone] | 11 nM |
| C[C@]1(O)C[C@@H](C(=O)N2CC3(CC[C@@H](Cc4ccc(OC(F)(F)F)cc4)C3)C2)C1 (racemic) [Example 179, (rac)-((1s,3s)-3-Hydroxy-3-methylcyclobutyl)(6-(4-(trifluoromethoxy)benzyl)-2-azaspiro[3.4]octan-2-yl)methanone] | 5.7 nM |
| C[C@]1(O)C[C@@H](C(=O)N2CC3(CC[C@@H](Cc4cccc(OC(F)(F)F)c4)C3)C2)C1 (racemic) [Example 180, (rac)-((1s,3s)-3-Hydroxy-3-methylcyclobutyl)(6-(3-(trifluoromethoxy)benzyl)-2-azaspiro[3.4]octan-2-yl)methanone] | 8.3 nM |
| CC(C)c1cccc(C[C@@H]2CCC3(C2)CN(C(=O)[C@H]2C[C@@](C)(O)C2)C3)c1 (racemic) [Example 181, (rac)-((1s,3s)-3-Hydroxy-3-methylcyclobutyl)(6-(3-isopropylbenzyl)-2-azaspiro[3.4]octan-2-yl)methanone] | 4.6 nM |
| C[C@]1(O)C[C@@H](C(=O)N2CC3(CCC(Cc4ccc(C(F)F)cc4)C3)C2)C1 (mixture of isomers) [Example 182, (rac)-(6-(4-(Difluoromethyl)benzyl)-2-azaspiro[3.4]octan-2-yl)((1s,3s)-3-hydroxy-3-methylcyclobutyl)methanone] | 34 nM |
| C[C@]1(O)C[C@@H](C(=O)N2CC3(CCC(Cc4ccc(OC(F)F)cc4)C3)C2)C1 (mixture of isomers) [Example 183, (rac)-(6-(4-(Difluoromethoxy)benzyl)-2-azaspiro[3.4]octan-2-yl)((1s,3s)-3-hydroxy-3-methylcyclobutyl)methanone] | 48 nM |
| C[C@]1(O)C[C@@H](C(=O)N2CC3(CCC(Cc4ccc(C5CC5)cc4)C3)C2)C1 (mixture of isomers) [Example 200, (rac)-(6-(4-Cyclopropylbenzyl)-2-azaspiro[3.4]octan-2-yl)((1s,3s)-3-hydroxy-3-methylcyclobutyl)methanone] | 6.9 nM |
| C[C@]1(O)C[C@@H](C(=O)N2CC3(CCC(Cc4cccc(C5CC5)c4)C3)C2)C1 (mixture of isomers) [Example 201, (rac)-(6-(3-Cyclopropylbenzyl)-2-azaspiro[3.4]octan-2-yl)((1s,3s)-3-hydroxy-3-methylcyclobutyl)methanone] | 9.9 nM |
| Cc1cc(C(F)(F)F)ccc1CC1CCC2(C1)CN(C(=O)[C@H]1C[C@@](C)(O)C1)C2 (mixture of isomers) [Example 203, (rac)-((1s,3s)-3-Hydroxy-3-methylcyclobutyl)(6-(2-methyl-4-(trifluoromethyl)benzyl)-2-azaspiro[3.4]octan-2-yl)methanone] | 7.8 nM |
| Cc1cc(CC2CCC3(C2)CN(C(=O)[C@H]2C[C@@](C)(O)C2)C3)ccc1C(F)(F)F (mixture of isomers) [Example 204, (rac)-((1s,3s)-3-Hydroxy-3-methylcyclobutyl)(6-(3-methyl-4-(trifluoromethyl)benzyl)-2-azaspiro[3.4]octan-2-yl)methanone] | 3.9 nM |
